In patent US20230374038A1, “MODULATORS OF CYSTIC FIBROSIS TRANSMEMBRANE CONDUCTANCE REGULATOR” (VERTEX PHARMACEUTICALS INCORPORATED, priority 2020, published 2023):

What was measured:
CFTR [1] = target: T1, CFTR (Homo sapiens, UniProt P13569, DEL508-508); test: HBE Assay: Ussing chamber assay of CFTR-mediated short-circuit currents in F508del/MF-HBE cells with 1 μM Ivacaftor; format: cell-based; conditions: 20% human serum; for HBE Activity at 10 μM: single fixed concentration of 10 μM
T1 construct: endogenous in cells; host or cells: primary human bronchial epithelial cells, F508del/MF genotype
T1 sequence (P13569 with tags, fused parts or gaps DEL508-508): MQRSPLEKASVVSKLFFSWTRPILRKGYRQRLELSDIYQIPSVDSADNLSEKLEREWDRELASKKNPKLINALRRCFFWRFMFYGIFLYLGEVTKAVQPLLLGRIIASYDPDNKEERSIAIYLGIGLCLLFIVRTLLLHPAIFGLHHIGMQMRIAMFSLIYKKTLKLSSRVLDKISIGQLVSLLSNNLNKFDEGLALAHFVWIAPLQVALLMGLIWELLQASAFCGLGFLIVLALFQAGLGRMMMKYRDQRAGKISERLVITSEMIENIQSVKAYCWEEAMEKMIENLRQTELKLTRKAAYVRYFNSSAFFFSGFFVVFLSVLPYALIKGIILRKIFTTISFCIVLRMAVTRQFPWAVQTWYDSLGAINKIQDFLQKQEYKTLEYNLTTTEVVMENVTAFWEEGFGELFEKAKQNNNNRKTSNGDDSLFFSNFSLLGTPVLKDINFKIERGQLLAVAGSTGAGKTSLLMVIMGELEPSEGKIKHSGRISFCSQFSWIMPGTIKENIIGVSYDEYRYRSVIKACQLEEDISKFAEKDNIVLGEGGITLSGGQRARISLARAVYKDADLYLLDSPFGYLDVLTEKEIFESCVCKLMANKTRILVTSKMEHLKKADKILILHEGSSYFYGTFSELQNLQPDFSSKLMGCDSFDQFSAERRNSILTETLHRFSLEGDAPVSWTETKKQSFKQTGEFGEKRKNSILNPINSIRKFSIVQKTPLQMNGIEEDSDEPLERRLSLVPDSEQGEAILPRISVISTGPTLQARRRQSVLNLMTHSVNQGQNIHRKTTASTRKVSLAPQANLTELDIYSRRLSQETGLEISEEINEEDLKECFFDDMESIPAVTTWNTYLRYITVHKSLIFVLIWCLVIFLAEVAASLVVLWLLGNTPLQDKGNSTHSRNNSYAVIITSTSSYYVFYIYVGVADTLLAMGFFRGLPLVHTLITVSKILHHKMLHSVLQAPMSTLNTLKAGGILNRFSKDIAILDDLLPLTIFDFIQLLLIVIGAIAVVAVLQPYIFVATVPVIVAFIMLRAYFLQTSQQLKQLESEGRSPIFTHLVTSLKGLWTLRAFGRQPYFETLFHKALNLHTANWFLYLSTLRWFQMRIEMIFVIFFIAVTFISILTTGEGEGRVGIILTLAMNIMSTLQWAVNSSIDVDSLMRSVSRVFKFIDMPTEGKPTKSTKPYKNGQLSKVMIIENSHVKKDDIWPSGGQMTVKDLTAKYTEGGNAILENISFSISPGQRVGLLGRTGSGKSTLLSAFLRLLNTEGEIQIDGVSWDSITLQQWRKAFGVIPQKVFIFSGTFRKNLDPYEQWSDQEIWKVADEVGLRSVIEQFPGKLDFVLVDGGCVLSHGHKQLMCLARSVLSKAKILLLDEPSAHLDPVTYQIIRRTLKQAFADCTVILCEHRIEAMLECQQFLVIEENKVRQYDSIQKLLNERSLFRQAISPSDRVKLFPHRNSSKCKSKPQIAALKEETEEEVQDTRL
Method: Ussing chamber experiments were performed using human bronchial epithelial (HBE) cells derived from CF subjects heterozygous for F508del and a minimal function CFTR mutation (F508del/MF-HBE) and cultured as previously described (Neuberger T, Burton B, Clark H, Van Goor F Methods Mol Biol 2011:741:39-54). After four days the apical media was removed, and the cells were grown at an air liquid interface for >14 days prior to use.
(§1) To isolate the CFTR-mediated short-circuit (ISC) current, F508del/MF-HBE grown on Costar® Snapwell™ cell culture inserts were mounted in an Ussing chamber and the transepithelial ISC was measured under voltage-clamp recording conditions (Vhold=0 mV) at 37° C. The basolateral solution contained (in mM) 145 NaCl, 0.83 K2HIPO4, 3.3 KH2PO4, 1.2 MgCl2, 1.2 CaCl2), 10 Glucose, 10 HEPES (pH adjusted to 7.4 with NaOH) and the apical solution contained (in mM) 145 NaGluconate, 1.2 MgCl2, 1.2 CaCl2), 10 glucose, 10 HEPES (pH adjusted to 7.4 with NaOH) and 30 μM amiloride to block the epithelial sodium channel. Forskolin (20 μM) was added to the apical surface to activate CFTR, followed by apical addition of a CFTR inhibitor cocktail consisting of BPO, GlyH-101, and CFTR inhibitor 172 (each at 20 μM final assay concentration) to specifically isolate CFTR currents. The CFTR-mediated ISC (μA/cm^2) for each condition was determined from the peak forskolin response to the steady-state current following inhibition.
The activity of the CFTR corrector compounds on the CFTR-mediated ISC was determined in Ussing chamber studies as described above. The F508del/MF-HBE cell cultures were either incubated with the corrector compounds at a range of concentrations in combination with 1 μM Ivacaftor or were incubated with the corrector compounds at a single fixed concentration of 10 μM in combination with 1 μM Ivacaftor for 18-24 hours at 37° C. and in the presence of 20% human serum. The concentration of corrector compounds with 1 μM Ivacaftor during the 18-24 hours incubations was kept constant throughout the Ussing chamber measurement of the CFTR-mediated ISC to ensure compounds were present throughout the entire experiment.
as §1, with “K2HPO4,” for “K2HIPO4,”

CFTR [2] = target: CFTR (Homo sapiens, UniProt P13569); test: Membrane Potential Dye, Enteroid Assay B; format: cell-based; conditions: for EC50: read-out: Ent. B EC50
CFTR (Homo sapiens, UniProt P13569), sequence (P13569 with tags, fused parts or gaps DEL508-508): as above
Outline: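 Membrane-potential fluorescence read over 15 min after chloride-free stimulation (forskolin 10 μM, IBMX 100 μM, Compound III 300 nM), with CaCCinh-A01 and Chicago Sky Blue present. Enteroids had 18-24 h compound exposure at 37 °C; activity given as % of the triple-combination corrector/potentiator reference response.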

[3] = with 1 μM Ivacaftor, 18-24 hours

## Cc1cccc(CC(C)C)c1-c1nc2nc(c1C)OC[C@@H](CC(C)(C)C)N(Cc1ncc(N3CCOCC3)cn1)C(=O)c1cccc(c1)S(=O)(=O)N2 (atropisomer, axis not shown) [Compound 296]
CFTR [1]; [3]
  EC50: < 1000 nM
  HBE Max Activity: +++ (+++ is >600%)

## Cc1c2nc(nc1-c1ccccc1C(C)(C)C)NS(=O)(=O)c1cccc(c1)C(=O)N(Cc1ccc(N3CCOCC3)cn1)[C@H](CC(C)(C)C)CO2 [Compound 181]
CFTR [1]; [3]
  EC50: < 1000 nM
  HBE Max Activity: +++ (+++ is >600%)

## Cc1cccc(C)c1-c1nc2nc(c1C)OC[C@@H](CC(C)C)N(Cc1ncc(OC(C)C)cn1)C(=O)c1cccc(c1)S(=O)(=O)N2 [Compound 193]
CFTR [1]; [3]
  EC50: < 1000 nM
  HBE Max Activity: +++ (+++ is >600%)

## Cc1cccc(C)c1-c1nc2nc(c1F)OC[C@@H](CC(C)(C)C)N(Cc1ncc(OC(C)C)cn1)C(=O)c1cccc(c1)S(=O)(=O)N2 [Compound 335]
CFTR [1]; range of concentrations with 1 μM Ivacaftor, 18-24 hours
  EC50: < 1000 nM
CFTR [1]; with 1 μM Ivacaftor, 18-24 hours, compared to known Vertex corrector with 18 μM Tezacaftor and 1 μM Ivacaftor, read-out: HBE Max activity (%)
  Emax: > 60%

## Cc1cccc(CC2CCCCC2)c1-c1nc2nc(c1C)OC[C@@H](CC(C)(C)C)N(Cc1nccc(N(C)C(C)C)n1)C(=O)c1cccc(c1)S(=O)(=O)N2 (atropisomer, axis not shown) [Compound 262]
CFTR [1]; [3]
  EC50: < 1000 nM
  HBE Max Activity: +++ (+++ is >600%)

## Cc1cccc(CC2CCCCC2)c1-c1nc2nc(c1C(F)(F)F)OC[C@@H](CC(C)(C)C)N(Cc1ncc(N3CCOCC3)cn1)C(=O)c1cccc(c1)S(=O)(=O)N2 (atropisomer, axis not shown) [Compound 245]
CFTR [1]; with 1 μM Ivacaftor
  HBE Activity at 10 μM: ++ (++ is 30-60%)

## Cc1cccc(CC2CCCC2)c1-c1nc2nc(c1C)OC[C@@H](CC(C)(C)C)NC(=O)c1cccc(c1)S(=O)(=O)N2 (atropisomer, axis not shown) [Compound 224]
CFTR [1]; with 1 μM Ivacaftor
  HBE Activity at 10 μM: +++ (+++ is >600%)

## Cc1cccc(CC(C)C)c1-c1nc2nc(c1C)OC[C@@H](CC(C)(C)C)N(Cc1ncc(N(C)CC(C)(C)C)cn1)C(=O)c1cccc(c1)S(=O)(=O)N2 (single isomer, unassigned) [Compound 211]
CFTR [1]; [3]
  EC50: < 1000 nM
  HBE Max Activity: +++ (+++ is >600%)

## Cc1cccc(CC2CCCC2)c1-c1nc2nc(c1C)OC[C@@H](CC(C)(C)C)N(Cc1ncc(CC(C)C)cn1)C(=O)c1cccc(c1)S(=O)(=O)N2 (atropisomer, axis not shown) [Compound 268]
CFTR [1]; [3]
  EC50: < 1000 nM
  HBE Max Activity: +++ (+++ is >600%)

## Cc1cccc(C)c1-c1nc2nc(c1-c1ccccn1)O[C@H](C)CNC(=O)c1cccc(c1)S(=O)(=O)N2 [Compound 154]
CFTR [2]
  Ent. B Max Activity: + (+ is <30%)
  EC50: 3000 to 30000 nM

## Cc1cccc(C)c1-c1nc2nc(c1C)OC[C@@H](CC(C)C)N([C@H]1C[C@@]3(C[C@H](NC(=O)OC(C)C)C3)C1)C(=O)c1cccc(c1)S(=O)(=O)N2 (single isomer, unassigned) [Compound 51]
CFTR [2]
  Ent. B Max Activity: +++ (+++ is >60%)
  EC50: < 1000 nM

## COC(=O)NC1CC2(C1)CC(N1C(=O)c3cccc(c3)S(=O)(=O)Nc3nc(c(C)c(-c4c(C)cccc4C)n3)OC[C@H]1CC1(C(F)(F)F)CC1)C2 (stereo in doubt) [Compound 88]
CFTR [2]
  Ent. B Max Activity: +++ (+++ is >60%)
  EC50: < 1000 nM

## Cc1cccc(C)c1-c1nc2nc(c1CCC(C)(C)C)OC[C@@H](C)NC(=O)c1cccc(c1)S(=O)(=O)N2 [Compound 125, (11R)-7-(3,3-Dimethylbutyl)-6-(2,6-dimethylphenyl)-11-methyl-2,2-dioxo-9-oxa-2λ^6-thia-3,5,12,19-tetrazatricyclo[12.3.1.14,8]nonadeca-1(18),4(19),5,7,14,16-hexaen-13-one]
CFTR [2]
  Ent. B Max Activity: ++ (++ is 30-60%)
  EC50: < 1000 nM

## Cc1cccc(C)c1-c1nc2nc(c1C)OCCNC(=O)c1cccc(c1)S(=O)(=O)N2 [Compound 35, 6-(2,6-Dimethylphenyl)-7-methyl-9-oxa-2λ^6-thia-3,5,12,19-tetraazatricyclo[12.3.1.14,8]nonadeca-1(18),4,6,8(19),14,16-hexaene-2,2,13-trione]
CFTR [2]
  Ent. B Max Activity: ++ (++ is 30-60%)
  EC50: 3000 to 30000 nM

## COC(=O)N1CCC2(CC1)CC(N1C(=O)c3cccc(c3)S(=O)(=O)Nc3nc(c(C)c(-c4c(C)cccc4C)n3)OC[C@H]1CC(C)(C)C(F)(F)F)C2 [Compound 183]
CFTR [2]
  Ent. B Max Activity: +++ (+++ is >60%)
  EC50: < 1000 nM

## Cc1cccc(C)c1-c1nc2nc(c1C)OC[C@@H](CC(C)C)N(C1CC3(CC(CO)C3)C1)C(=O)c1cccc(c1)S(=O)(=O)N2 (stereo in doubt) [Compound 66]
CFTR [2]
  Ent. B Max Activity: +++ (+++ is >60%)
  EC50: < 1000 nM

## COC1CC(N2C(=O)c3cccc(c3)S(=O)(=O)Nc3nc(c(C)c(-c4c(C)cccc4C)n3)OC[C@H]2CC(C)C)C1 (stereo in doubt) [Compound 72]
CFTR [2]
  Ent. B Max Activity: +++ (+++ is >60%)
  EC50: < 1000 nM

## Cc1cccc(C)c1-c1nc2nc(c1C)OC[C@@H](CC1(C(F)(F)F)CC1)N(C1CC3(CC(N(C)C)C3)C1)C(=O)c1cccc(c1)S(=O)(=O)N2 (stereo in doubt) [Compound 91]
CFTR [2]
  Ent. B Max Activity: +++ (+++ is >60%)
  EC50: < 1000 nM

## Cc1cccc(C)c1-c1nc2nc(c1C)OC(c1ccc(CC3(C(F)(F)F)CC3)cn1)CN(C)C(=O)c1cccc(c1)S(=O)(=O)N2 (stereo not shown) [Compound 203]
CFTR [2]
  Ent. B Max Activity: +++ (+++ is >60%)
  EC50: < 1000 nM

## Cc1cccc(C)c1-c1nc2nc(c1C)OC[C@@H](CC(C)C)NC(=O)c1cccc(c1)S(=O)(=O)N2 [Compound 73]
CFTR [2]
  Ent. B Max Activity: +++ (+++ is >60%)
  EC50: < 1000 nM

## Cc1cccc(C)c1-c1nc2nc(c1-c1cnn(CC(C)C)c1)OC[C@@H](C)NC(=O)c1cccc(c1)S(=O)(=O)N2 [Compound 124, (11R)-6-(2,6-Dimethylphenyl)-7-(1-isobutylpyrazol-4-yl)-11-methyl-2,2-dioxo-9-oxa-2λ^6-thia-3,5,12,19-tetrazatricyclo[12.3.1.14,8]nonadeca-1(18),4(19),5,7,14,16-hexaen-13-one]
CFTR [2]
  Ent. B Max Activity: ++ (++ is 30-60%)
  EC50: 3000 to 30000 nM

## Cc1cccc(C)c1-c1nc2nc(c1C)OCCCN(C1CC3(CC(NC(=O)OC(C)(C)C)C3)C1)C(=O)c1cccc(c1)S(=O)(=O)N2 (stereo not shown) [Compound 38]
CFTR [2]
  Ent. B Max Activity: + (+ is <30%)
  EC50: < 1000 nM

## Cc1cccc(C)c1-c1nc2nc(c1C)OC[C@@H](CC1(C(F)(F)F)CC1)N(C1CC3(CC(NC(=O)OC(C)(C)C)C3)C1)C(=O)c1cccc(c1)S(=O)(=O)N2 (stereo in doubt) [Compound 98]
CFTR [2]
  Ent. B Max Activity: +++ (+++ is >60%)
  EC50: < 1000 nM

## Cc1cccc(C)c1-c1nc2nc(c1C)OC[C@@H](CC(C)C)N([C@H]1C[C@@H](OC(C)C)C1)C(=O)c1cccc(c1)S(=O)(=O)N2 (single isomer, unassigned) [Compound 47]
CFTR [2]
  Ent. B Max Activity: ++ (++ is 30-60%)
  EC50: < 1000 nM

## Cc1cccc(C)c1-c1nc2nc(c1C)OC[C@@H](CC1(C(F)(F)F)CC1)N(C1CC3(CC(CO)C3)C1)C(=O)c1cccc(c1)S(=O)(=O)N2 (stereo partly shown) [Compound 81]
CFTR [2]
  Ent. B Max Activity: +++ (+++ is >60%)
  EC50: < 1000 nM

## Cc1cccc(C)c1-c1nc2nc(c1C)OC[C@@H](CCC(C)(C)O)N(Cc1ccc(C(C)(C)O)cc1)C(=O)c1cccc(c1)S(=O)(=O)N2 [Compound 112]
CFTR [2]
  Ent. B Max Activity: ++ (++ is 30-60%)
  EC50: 1000 to 3000 nM

## Cc1cccc(C)c1-c1nc2nc(c1C1=CCN(C(=O)OC(C)(C)C)CC1)OC[C@@H](C)NC(=O)c1cccc(c1)S(=O)(=O)N2 [Compound 136]
CFTR [2]
  Ent. B Max Activity: ++ (++ is 30-60%)
  EC50: 1000 to 3000 nM
